Here are results for four compounds from patent US20010039255A1, “Use of alpha1A adrenoceptor agonists with alpha1B and alpha1D antagonism for the treatment of stress urinary incontinence” (priority 2000, published 2001).

Where two headings read alike, the source gives them in different places.

The target of data set [1] is T1, α1d (rat receptor expressed in mouse fibroblasts) (Rattus norvegicus, UniProt P23944).
T1 construct: expressed in transfected cells; host or cells: mouse fibroblasts
T1 sequence (P23944 1-561): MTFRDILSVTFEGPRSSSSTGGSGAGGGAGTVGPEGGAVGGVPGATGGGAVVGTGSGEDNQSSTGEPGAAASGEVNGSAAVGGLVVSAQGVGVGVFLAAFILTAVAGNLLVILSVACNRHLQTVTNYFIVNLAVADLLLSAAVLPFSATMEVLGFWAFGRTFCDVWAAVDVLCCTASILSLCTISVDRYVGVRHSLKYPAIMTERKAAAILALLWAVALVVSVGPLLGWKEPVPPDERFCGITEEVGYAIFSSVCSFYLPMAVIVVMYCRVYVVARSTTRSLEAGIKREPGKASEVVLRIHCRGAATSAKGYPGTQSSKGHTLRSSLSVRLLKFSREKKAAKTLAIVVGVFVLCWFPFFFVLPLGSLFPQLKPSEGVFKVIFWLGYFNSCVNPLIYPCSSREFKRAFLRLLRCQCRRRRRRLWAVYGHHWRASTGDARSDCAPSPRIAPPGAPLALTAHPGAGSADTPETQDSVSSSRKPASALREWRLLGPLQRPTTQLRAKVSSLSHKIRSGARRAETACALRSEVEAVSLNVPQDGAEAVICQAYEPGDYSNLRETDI
The data set is described as follows: Radioligand binding with [3H]-prazosin, α1d (rat receptor expressed in mouse fibroblasts).

Data set [2] has as its target T2, α1D adrenoceptor (rat aorta) (Rattus norvegicus, UniProt P23944).
T2 sequence (P23944 1-561): T1 sequence (P23944 1-561)
The note with it: for α1D efficacy: percent of phenylephrine (100%) contraction; for α1D r: Schild plot regression correlation; for α1D slope: Schild plot slope; for type of antagonism at α1D: based on slope and regression (r) of Schild plot.

Data set [3] concerns the target T2, α1D adrenoceptor (rat aorta). The data set is described as follows: cell-based.
Data set [4] deals with Female Beagle dogs. The note with it: for IUP ED5mmHg: dose producing 5 mmHg increase in intraurethral pressure; for effect on intraurethral pressure and mean arterial pressure: increasing i.v. doses, dogs, FIGS. 1-4.
Description: Female Beagle dogs (Marshall Farms, North Rose, N.Y.) greater that 2 years of age and weighing between 12 and 15 kg were used in these studies. At least 2 weeks prior to any agonist dosing, dogs were instrumented for the chronic measurement of arterial blood pressure by implanting a telemetry transducer/transmitter (TA11PA-C40, Data Sciences International, St. Paul, Minn.) into a carotid artery.
On the test day, dogs fasted since the previous afternoon were pre-anesthetized with thiopental sodium 15 mg/kg i.v. (Pentothal™, Abbott) and intubated. Anesthesia was maintained by allowing the dog to spontaneously breathe a mixture of isoflurane (2.5 to 3 volume %) and oxygen delivered by a Narkomed Standard anesthesia system (North American Drager, Telford, Pa.). An Abbocath-T™ i.v. catheter (18-G, Abbott Laboratories, Abbott Park, Ill.) was inserted into the cephalic vein for the administration of agonists. A telemetry receiver (RA1310, DataSciences) was placed under the head of each dog and was interfaced to a computerized data acquisition system (Modular Instruments Inc.(MI2), Malvern, Pa.) which allowed for the continuous calibrated recording of arterial blood pressure which was electronically filtered to determine its mean value (MAP).
Intraurethral pressure was monitored using a balloon catheter technique previously described (Brune et al., Drug Development Research 34:267-275,1995). Briefly, a 7 Fr catheter balloon catheter (41224-01, Abbott) was inserted into the urethral orifice and advanced approximately 15 cm until the tip was well inside the bladder. The balloon was then inflated with 1 ml of room air and the catheter slowly withdrawn until resistance (corresponding to the bladder neck) was evident. The balloon was then deflated and the catheter withdrawn an additional 2 cm. The balloon was then reinflated and its catheter port connected to a Gould Statham P23Dd pressure transducer interfaced to a computerized data acquisition system (Modular Instruments, Inc., Malvern, Pa.) for the measurement of intraurethral pressure (IUP). The MAP and IUP pressor responses to increasing iv doses of test agonists were obtained simultaneously. The pressor effects of each dose were allowed to return to baseline before the next dose was given.
The dose required to elicit significant and clinically meaningful changes in IUP (5 mm Hg) relative to the dose required to elicit a physiologically significant increase in blood pressure (20 mm Hg) is calculated.
IUP and MAP pressor effects of each agonist dose were expressed as the maximum net change in each pressure over pre-dose baseline levels. Subsequently, the effective doses required to produce a 5 mmHg increase in IUP (IUP ED5mmHg) and a 20 mmHg increase in MAP (MAP ED20mmHg) were estimated from the dose response data from each dog. Relative urethral versus vascular selectivity of each agonist in each dog was estimated using a ratio of these respective potency indices (MAP ED20mmHg/IUP ED5mmHg).
Data set [5] concerns the target T3, α1b (hamster receptor expressed in mouse fibroblasts) (Mesocricetus auratus, UniProt P18841).
T3 construct: expressed in transfected cells; host or cells: mouse fibroblasts
T3 sequence (P18841 1-515): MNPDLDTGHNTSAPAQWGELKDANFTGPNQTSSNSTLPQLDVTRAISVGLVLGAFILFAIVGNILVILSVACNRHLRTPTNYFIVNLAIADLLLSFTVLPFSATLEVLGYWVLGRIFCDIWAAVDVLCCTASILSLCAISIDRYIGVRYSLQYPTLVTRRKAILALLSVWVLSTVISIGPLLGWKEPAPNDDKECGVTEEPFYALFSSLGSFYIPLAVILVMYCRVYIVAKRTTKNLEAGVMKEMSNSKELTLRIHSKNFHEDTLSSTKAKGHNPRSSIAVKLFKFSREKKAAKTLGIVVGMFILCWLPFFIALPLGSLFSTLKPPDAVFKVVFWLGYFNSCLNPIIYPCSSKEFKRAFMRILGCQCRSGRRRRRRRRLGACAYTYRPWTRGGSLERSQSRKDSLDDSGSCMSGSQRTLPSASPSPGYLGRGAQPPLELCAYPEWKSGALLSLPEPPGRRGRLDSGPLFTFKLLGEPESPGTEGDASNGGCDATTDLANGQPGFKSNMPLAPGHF
As to the kind of experiment: Radioligand binding with [3H]-prazosin, α1b (hamster receptor expressed in mouse fibroblasts). From the text:
Radioligand Binding Ki (nM)
Exp. Ther. (1995), 274, 97-103.

Data set [6] addresses T4, α1B adrenoceptor (rat spleen) (Rattus norvegicus, UniProt P15823).
T4 sequence (P15823 1-515): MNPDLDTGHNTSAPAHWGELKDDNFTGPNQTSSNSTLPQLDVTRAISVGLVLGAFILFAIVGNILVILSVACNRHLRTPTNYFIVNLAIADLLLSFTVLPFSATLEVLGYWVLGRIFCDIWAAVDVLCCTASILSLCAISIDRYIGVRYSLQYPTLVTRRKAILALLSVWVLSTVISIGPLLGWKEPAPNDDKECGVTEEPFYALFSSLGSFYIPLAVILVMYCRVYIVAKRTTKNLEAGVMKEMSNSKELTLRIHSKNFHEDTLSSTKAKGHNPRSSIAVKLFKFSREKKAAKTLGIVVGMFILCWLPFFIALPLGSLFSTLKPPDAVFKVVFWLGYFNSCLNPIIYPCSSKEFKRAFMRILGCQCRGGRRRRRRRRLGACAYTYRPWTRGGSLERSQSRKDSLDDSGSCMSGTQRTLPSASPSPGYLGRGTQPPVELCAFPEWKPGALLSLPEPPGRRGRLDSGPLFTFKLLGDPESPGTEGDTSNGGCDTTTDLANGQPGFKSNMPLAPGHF
The note with it: for α1B r: Schild plot regression correlation; for α1B slope: Schild plot slope; for type of antagonism at α1B: based on slope and regression (r) of Schild plot. From the text:
A cumulative concentration protocol was employed.

Data set [7] concerns the target T5, α1A (rat submaxillary gland) (Rattus norvegicus, UniProt P43140).
T5 construct: from tissue; host or cells: rat submaxillary gland
T5 sequence (P43140 1-466): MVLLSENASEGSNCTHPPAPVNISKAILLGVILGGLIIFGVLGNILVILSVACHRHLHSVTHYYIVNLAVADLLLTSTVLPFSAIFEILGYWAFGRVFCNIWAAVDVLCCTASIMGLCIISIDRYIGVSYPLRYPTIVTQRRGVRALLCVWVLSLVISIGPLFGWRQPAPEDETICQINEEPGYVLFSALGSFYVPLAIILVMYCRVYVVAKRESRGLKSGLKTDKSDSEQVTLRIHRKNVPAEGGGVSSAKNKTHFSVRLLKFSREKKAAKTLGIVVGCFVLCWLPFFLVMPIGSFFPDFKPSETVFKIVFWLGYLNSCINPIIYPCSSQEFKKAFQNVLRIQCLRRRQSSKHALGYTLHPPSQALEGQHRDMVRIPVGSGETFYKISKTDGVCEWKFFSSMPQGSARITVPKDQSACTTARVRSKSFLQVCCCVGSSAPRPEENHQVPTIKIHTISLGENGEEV
As to the kind of experiment: Radioligand binding with [3H]-prazosin, α1A (rat submaxillary gland).

The target in data set [8] is T6, α1A adrenoceptor (rabbit urethra) (Oryctolagus cuniculus, UniProt O02824).
T6 sequence (O02824 1-466): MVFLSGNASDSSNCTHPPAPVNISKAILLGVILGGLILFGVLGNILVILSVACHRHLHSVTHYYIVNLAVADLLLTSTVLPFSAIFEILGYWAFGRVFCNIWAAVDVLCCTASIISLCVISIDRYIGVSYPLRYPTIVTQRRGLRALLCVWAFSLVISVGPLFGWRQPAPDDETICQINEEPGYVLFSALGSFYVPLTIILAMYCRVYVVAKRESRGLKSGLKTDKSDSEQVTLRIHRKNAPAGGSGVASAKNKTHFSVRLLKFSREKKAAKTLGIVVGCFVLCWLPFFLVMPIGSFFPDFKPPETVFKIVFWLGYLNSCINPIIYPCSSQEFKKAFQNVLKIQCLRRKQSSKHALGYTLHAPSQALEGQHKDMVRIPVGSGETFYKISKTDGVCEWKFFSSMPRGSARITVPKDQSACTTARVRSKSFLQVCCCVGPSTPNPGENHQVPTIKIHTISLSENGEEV
As to the kind of experiment: Rabbit urethra α1A subtype tissue bath. The data set is classed as cell-based. The source says:
Rabbit Urethra α1A Subtype
A cumulative concentration protocol was employed. […] Br. J. Pharmacol. 14, 48-58.

The mark [9] stands for this setting: i.v., anesthetized dogs, mean ± S.E.M.
[10] abbreviates: i.v., anesthetized dogs, dose producing 20 mmHg increase in mean arterial pressure, mean ± S.E.M.

In the case of `CS(=O)(=O)Nc1c(O)ccc2c1CCCC2C1=NCCN1` (centres unmarked) [Compound A-61603, reference compound], the Ki was 1560 ± 169 nM in data set [1] and 1210 nM in data set [5] (hamster receptor expressed in mouse fibroblasts, [3H]-prazosin, read-out: Radioligand Binding Ki α1b (Hamster)). Moreover, in data set [2] (rat aorta), the α1D efficacy was 100%. Further, the EC50 in data set [3] is 2510 nM. Besides, in data set [4] (female, Beagle, dog, in vivo, iv), the “MAP ED20mmHg” value is given as 0.27 ± 0.05 nmol/kg. In addition, the “IUP ED5mmHg” value in data set [4] (setting [9]) came out at 0.16 ± 0.02 nmol/kg. Further, the “effect on intraurethral pressure and mean arterial pressure” value (from here on “effect”) in data set [4] is given as “dose-dependent increases”.
As for `CC(N)C(O)c1ccccc1` (centres unmarked) [PPA, phenylpropanolamine, reference compound], the “α1d binding (in words)” value in data set [1] (rat receptor expressed in mouse fibroblasts, [3H]-prazosin) is “weak adrenergic ligand”. Moreover, in data set [2] (rat aorta), the α1D efficacy stood at 91% and the “α1D agonist activity (in words; merged pD2/efficacy cell)” value is “weak agonist”. The compound further registered a α1B efficacy in data set [6] (percent of phenylephrine (100%) contraction, rat spleen) of 34%. Further, the “α1B agonist activity (in words; merged pD2/efficacy cell)” value in data set [6] (rat spleen) is reported as “weak agonist”. Moreover, the “Radioligand Binding Ki α1A (Rat)” value in data set [7] (rat submaxillary gland, [3H]-prazosin) is given as “weak adrenergic ligand”. Besides, in data set [4] (calculated for each dog and then averaged), the “Selectivity ratio MAP ED20/IUP ED5” value was 0.4. For the same compound, the “IUP ED5mmHg” value in data set [4] (setting [9]) is 1092 ± 384 nmol/kg. In addition, the “MAP ED20mmHg” value in data set [4] (setting [10]) came out at 331 ± 80 nmol/kg. In data set [4], the “effect” value was “dose-dependent increases”. In data set [5] (hamster receptor expressed in mouse fibroblasts, [3H]-prazosin), the “α1b binding (in words)” value is “weak adrenergic ligand”. In addition, in data set [8], the “α1A agonist activity (in words)” value is “weak agonist”. This compound registered a α1A efficacy in data set [8] (percent of phenylephrine (100%) contraction) of 68%.
Turning to `CCS(=O)(=O)Nc1cccc(Cc2c[nH]cn2)c1C` [Compound A-286569], in data set [1], the Ki is 840 ± 78 nM. Also, in data set [2] (rat aorta), the α1D r turned out to be 0.5 and the α1D slope is 1.1. In data set [2], the “type of antagonism at α1D” value is “non-competitive antagonist”. Besides, in data set [6] (rat spleen), the α1B r is on record as 0.6 and the α1B slope was determined as 1.3. Besides, the “type of antagonism at α1B” value in data set [6] was “non-competitive antagonist”. For the same compound, the Ki in data set [7] was 150 ± 32 nM. The “IUP ED5mmHg” value in data set [4] (setting [9]) is 41.9 ± 6.2 nmol/kg. In addition, the “MAP ED20mmHg” value in data set [4] (setting [10]) amounted to 201.6 ± 67 nmol/kg. In data set [4], the “effect” value is “dose-dependent increases”. For the same compound, the Ki in data set [5] is over 10000 nM.
As to `CCS(=O)(=O)Nc1cccc(Cc2c[nH]cn2)c1` [Compound A-286666], the Ki worked out at 287 ± 41 nM in data set [1], 137 ± 15 nM in data set [7] and 913 ± 135 nM in data set [5]. Moreover, the α1D r in data set [2] (rat aorta) was 0.9. In data set [2] (rat aorta), this compound gave a α1D slope of 0.93. In data set [2], the “type of antagonism at α1D” value is reported as “competitive antagonist”. The same compound registered a α1B r in data set [6] (rat spleen) of 0.9. This compound also returned a α1B slope in data set [6] (rat spleen) of 0.81. Also, in data set [6], the “type of antagonism at α1B” value is “competitive antagonist”.
